For one test, the target named is HIV-1 protease (Human immunodeficiency virus type 1 group M subtype B, UniProt P04585). Briefly: biochemical.
The test system of the next test is HIV-1 (strain IIIB). Briefly: microbe, parasite or virus in culture. It counts as cell-based. Conditions: lower line of each compound's entry, read-out: IC50 (MT-4 cells).
Setting [1] is: HIV-1 protease, upper line of each compound's entry, read-out: Ki (enzyme).
Where [2] appears, read: Human immunodeficiency virus 1, 120 h, MT4 cells infected with HIV-1 strain IIIB, 5 days.
Setting [3] is: Human immunodeficiency virus 1, IIIB, MT4, 120 h, […].

Where two headings read alike, the source gives them in different places. Some results are limits rather than exact numbers.

Consider `COC(=O)Nc1nc2cc(S(=O)(=O)N(C[C@@H](O)[C@H](Cc3ccccc3)NC(=O)OC(C)(C)C)OC3CCCC3)ccc2[nH]1` [Compound 130, tert-Butyl-N-((1S,2R)-1-benzyl-3-(cyclopentyloxy)(2-[(methoxycarbonyl)amino]benzimidazol-5-ylsulfonyl)amino-2-hydroxypropyl)carbamate], for which, at HIV-1 protease (setting [1]), the Ki is less than 0.001 µM. In addition, the IC50 in the test with HIV-1 (strain IIIB) (setting [2]) was no more than 0.1 µM.
As to `COc1ccc(S(=O)(=O)N(C[C@@H](O)[C@H](Cc2ccccc2)NC(=O)OC2CO[C@H]3OCC[C@@H]23)OC2CCCC2)cc1OC` (stereo partly drawn) [Compound 140, (3R,3aS,6aR)hexahydrofuro[2,3-b]furan-3-yl N-((1S, 2R)-1-benzyl-3-(cyclopentyloxy)[(3,4-dimethoxyphenyl)sulfonyl]amino-2-hydroxypropyl)carbamate], the Ki on HIV-1 protease (setting [1]) is less than 0.001 µM. For the same compound, the IC50 with HIV-1 (strain IIIB) (setting [2]) was no more than 0.1 µM.
Regarding `O=C(N[C@@H](Cc1ccccc1)[C@H](O)CN(OC1CCOCC1)S(=O)(=O)c1ccc2c(c1)OCO2)O[C@H]1CO[C@H]2OCC[C@H]21` [Compound 151, (3R,3aS,6aR)hexahydrofuro[2,3-b]furan-3-yl 3-[(1,3-benzodioxol-5-ylsulfonyl)(tetrahydro-2H-pyran-4-yloxy)amino]-1-benzyl-2-hydroxypropylcarbamate], the Ki at HIV-1 protease (setting [1]) is less than 0.001 µM. In the test on HIV-1 (strain IIIB) (setting [3]), the half-inhibitory concentration (IC50) is no more than 0.1 µM.
On to `CC(C)(C)OC(=O)N[C@@H](Cc1ccccc1)[C@H](O)CN(OC1CCCC1)S(=O)(=O)c1ccc2[nH]c(=O)[nH]c2c1` [Compound 131, tert-Butyl-N-((1S,2R)-1-benzyl-3-(cyclopentyloxy)(2-oxybenzimidazol-5-ylsulfonyl)amino-2-hydroxypropyl)carbamate], for which the Ki at HIV-1 protease (setting [1]) was less than 0.001 µM. For the same compound, the IC50 in the test on HIV-1 (strain IIIB) (setting [2]) is no more than 0.1 µM.
For `CCC(CC)ON(C[C@@H](O)[C@H](Cc1ccccc1)NC(=O)OC(C)(C)C)S(=O)(=O)c1ccc(OC)cc1` [Example 161, tert-butyl(1S,2R)-1-benzyl-3-{(1-ethylpropoxy)[(4-methoxyphenyl)sulfonyl]amino}-2-hydroxypropylcarbamate] the same measures were 0.001 to 0.01 µM and greater than 1 µM.
In the case of `O=C(N[C@@H](Cc1ccccc1)[C@H](O)CN(OC1CCCC1)S(=O)(=O)c1ccc2c(c1)OCO2)OC1CO[C@H]2OCC[C@@H]12` (stereo partly drawn) [Compound 138, (3R,3aS,6aR)hexahydrofuro[2,3-b]furan-3-yl N-(1S,2R)-3-[(1,3-benzodioxol-5-ylsulfonyl)(cyclopentyloxy)amino)-1-benzyl-2-hydroxypropylcarbamate], the Ki on HIV-1 protease was less than 0.001 µM. The IC50 with HIV-1 (strain IIIB) (setting [2]) is no more than 0.1 µM.
Regarding `CNC(=O)CNC(=O)NCCNc1cccc(S(=O)(=O)N(CC(O)C(Cc2ccccc2)NC(=O)OC2COC3OCCC23)OC2CCCC2)c1` [Example 167, (3R,3aS,6aR)hexahydrofuro[2,3-b]furan-3-yl N-[(1S,2R)-1-benzyl-3-((cyclopentyloxy)[3-([(2-[methylamino]-2-oxoethylamino)carbonylamino]ethylamino)phenyl]sulfonylamino)-2-hydroxypropyl]carbamate and (3S,3aR,6aS)hexahydrofuro[2,3-b]furan-3-yl N-[(1S,2R)-1-benzyl-3-((cyclopentyloxy)[3-([2-[methylamino)-2-oxoethylamino)carbonylamino]ethylamino)phenyl]sulfonylamino)-2-hydroxypropyl]carbamate], at HIV-1 protease (setting [1]), the Ki is less than 0.001 µM. Further, the IC50 in the test on HIV-1 (strain IIIB) (setting [2]) lay within 0.1 to 0.5 µM.
With `CC(C)(C)OC(=O)N[C@@H](Cc1ccccc1)[C@H](O)CN(OC1CCCC1)S(=O)(=O)c1cccc(N)c1` [Compound 11, tert-butyl N-(1S,2R)-3-[[(3-aminophenyl)sulfonyl](cyclopentyloxy)amino]-1-benzyl-2-hydroxypropylcarbamate], the Ki at HIV-1 protease (setting [1]) was in the range of 0.001 to 0.01 µM. Further, the IC50 in the test on HIV-1 (strain IIIB) (setting [2]) was greater than 1 µM.
Regarding `COc1ccc(S(=O)(=O)N(C[C@@H](O)[C@H](Cc2ccccc2)NC(=O)[C@H](CC(N)=O)NC(=O)c2ccc3ccccc3n2)OC2CCCCC2)cc1` [Compound 66], on HIV-1 protease, the Ki was less than 0.001 µM. Besides, in the test on HIV-1 (strain IIIB) (setting [3]), the IC50 is no more than 0.1 µM.

The record behind these values is patent publication US20040097594A1 (priority 1998, published 2004).
